Laboratory results reported in patent US11253497B2, “Use of derivatives of polyunsaturated fatty acids as medicaments” (Lipopharma Therapeutics, S.L., priority 2009, dated 2022).

Experiments:
TNF-α = assay: Production of TNF-α in serum of LPS-injected C57BL6/J mice; format: in vivo; details: LPS 20 μg i.p. (100%), 200 mg/kg p.o.
Source text: (§1) Cyclooxygenase (COX) is an enzyme that can bind to membranes, taking certain lipids from there and catalyze its conversion into molecules that can have inflammatory activity. The binding of this enzyme to membrane lipids is due in part to the membrane lipid structure. The increased activity of COX 1 and 2 isoforms has been associated with the etiopathology of a number of inflammatory diseases by […] arachidonic acid metabolism to produce pro-inflammatory lipid mediators. The D-PUFA compounds of the present invention produced a series of cellular signals that alter the metabolism of arachidonic acid and, as a result, they inhibit the activity and expression of COX in monocytes in culture (Table 14 and FIG. 5A). […] For this purpose, C57BL6/J mice were treated with the various derivatives (200 mg/kg, p.o.,) after inducing an inflammatory reaction in them by intraperitoneal injection of 20 μg of bacterial lipopolysaccharide (LPS).

[1] = test system: heterotrimeric Gi1 protein; assay: Binding of heterotrimeric Gi1 protein to model membranes (centrifugation, immunoblotting); details: phosphatidylcholine:phosphatidylethanolamine (6:4) 2 mM phospholipid, 0.1 μM D-PUFA; control 100 ± 5; in % (unit assumed)
Source text: The net result is a regulation of cell signalling leading to the reversal of various pathological processes, as shown later. […] The Control is a sample of model membranes in the absence of fatty acids.

[2] = test system: brain cancer cell (glioma) U118; assay: Brain cancer (glioma) U118 cell growth; format: cell-based; details: 72 hours of incubation
Procedure, shortened: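 Human cells in RPMI 1640 with 10% FBS at 37 °C, 5% CO2, exposed to D-PUFAs or PUFAs, then counted. glioma U118 cells run under the same conditions; values are means of three independent experiments.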

HepG2 cells = assay: Liver cancer (HepG2 cells); format: cell-based; details: Homo sapiens, HepG2; 72 hours
Description: These charts show the antitumor efficacy of the compounds of this invention against the growth of breast cancer cells, brain (glioma), and lung cancer. […] The other experimental conditions are identical to those described in the preceding paragraph.
(§2) Overall, it may be seen that the series of compounds A and B are the best, so the effectiveness of these series against the development of leukaemia and liver cancer (Tables 9 and 10) was tested.

[3] = test system: breast cancer cells MDA-MB-231; assay: Growth of breast cancer cells MDA-MB-231; format: cell-based; details: 72 hours of incubation
Procedure, shortened: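 Human cancer cells in RPMI 1640 with 10% FBS at 37 °C, 5% CO2, exposed to D-PUFAs or PUFAs, then counted. Breast MDA-MB-231 cells run under the same conditions; values are means of three independent experiments.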

[4] = Lamellar-to-hexagonal (HII) transition temperature in DEPE model membranes by Differential Scanning Calorimetry; format: physicochemical; details: for Transition temperature (lamellar to HII): DEPE (4 mM), 200 μM compound, series A, control 64.5
Procedure, shortened: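 Lamellar-to-HII transition temperature of DEPE membranes measured by differential scanning calorimetry, with DEPE:fatty acid at 10:1 mol:mol. Control membranes contained no fatty acid.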

[5] = Serum cholesterol, triglycerides and glucose in SHR rats (colorimetric); format: in vivo, rat; details: 200 mg/kg daily p.o., 28 days, untreated rats 100%
Procedure, shortened: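 SHR rats dosed p.o. at 200 mg/kg daily for 28 days; serum cholesterol, triglycerides and glucose measured colorimetrically. Values given as percent of untreated control rats, set at 100%.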

α-synuclein = assay: Expression of α-synuclein in neuronal cultures (cells P19); format: cell-based; details: untreated cells 100%
3T3 cells = assay: Percentage of total PUFAs in membranes of 3T3 cells treated with fatty acids (gas chromatography); format: cell-based; details: 100 μM, 48 hours, mean ± SEM of four measures, control 32.4 ± 2.1
Source text: To perform these experiments, membranes were extracted and total fatty acids were obtained by hydrolysis in basic medium. Methanolic bases of these fatty acids were quantified by gas chromatography. The data shown are averages of four independent measures of PUFA's mass divided by the total fatty acids and expressed as a percentage. It is also shown is standard error of the mean.
The control corresponds to a culture without the presence of added natural or synthetic fatty acids. Cells in their natural form present PUFAs in their membranes, but the presence in the medium of the D-PUFA molecules of the invention increases these levels of PUFAs in the cell membrane.

lung cancer cells A549 = assay: Growth of lung cancer cells A549 (IC50); format: cell-based, human; details: 72 hours of incubation
Procedure, shortened: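 Human A549 lung cancer cells in RPMI 1640 with 10% FBS at 37 °C, 5% CO2, exposed to D-PUFAs or PUFAs, then counted. values are means of three independent experiments.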

P19 cells = assay: NMDA-induced neuronal death in P19 cells; format: cell-based; details: NMDA alone 100% death, control without NMDA 0%; negative values = proliferation
COX-2 = assay: Expression of COX-2 in LPS-stimulated monocytes in culture; format: cell-based, human; details: positive control with LPS 100%
Source text: FIG. 5A also presents a drawing showing the COX-2/COX-1 relationship as % of control (Y axis) for the following compounds (X-axis): OOA (2-hydroxy-oleic acid), OLA (182A1), OALA (183A1), OGLA (183A2), OARA (204A1), OEPA (205A1), ODHA (226A1). […] The reduction of this factor is directly related to the anti-inflammatory medication. The compounds are the same as in the left pane.
as §1
Inhibition of COX-2 expression in monocytes. Percentages of inhibition (compared to the positive control in the presence of LPS, 100%) of COX-2 protein levels (expression) by the various fatty acid derivatives.

Jurkat cells = assay: Human leukaemia (Jurkat cells); format: cell-based; details: 72 hours
Description: as §2

[6] = test system: apolipoprotein AI (apoA-I); assay: Levels of apoA-I in SHR rats (RT-PCR); format: in vivo, rat; details: 200 mg/kg day p.o., 30 days, before treatment 100%
Procedure, shortened: (§3)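 SHR rats dosed orally at 200 mg/kg day for 30 days against water vehicle. At study end, blood pressure taken non-invasively by tail cuff and apoA-I assessed as gene expression by RT-PCR.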

[7] = test system: Spontaneously Hypertensive Rats (SHR); assay: Blood pressure of SHR rats (cuff-tail method); format: in vivo, rat; details: 200 mg/kg day p.o., 30 days, before treatment 214 mmHg
Procedure, shortened: as §3

B6 healthy mice = assay: Radial maze in control animals (B6 healthy mice); format: in vivo; details: 20 mg/kg daily po, 3 months
Description: To test the efficacy of the compounds of the present invention to induce neuroregeneration or inhibit neurodegeneration, an animal model of Alzheimer's disease was used. In this model mice develop neurodegeneration because they express a series of mutant proteins that lead to brain damage (Alzh mice). B6 mice were used as healthy animal controls. Both groups of animals were treated for a period of 3 months with vehicle (water) or with various D-PUFA (20 mg/kg, daily po) since they were an age of 3 months. To determine whether cognitive improvement occurred after treatment, animal behaviour was monitored in the radial maze. The animals are kept on restricted diet to have appetite. In a symmetrical 8-arm radial maze, visual marks were placed to facilitate the orientation of the animal and food (15 mg tablet) was put in four of the arms. The time each animal took to complete the exercise, and the number of errors, were measured using a camera attached to a computer system. In this sense, Alzheimer animals have values about 50% higher than healthy animals, both by the time it takes to perform the exercise and by the number of errors made (FIG. 4B). […] In this regard, the effectiveness of the compound 183B1, 205A1, 205B1, 226A1, 226 V1 was also tested, showing improvements in animals with Alzheimer's disease (times of 98, 92, 93, 86 and 89 seconds, respectively). On the other hand, it is also interesting that these same compounds (183B1, 205A1, 205B1, 226A1, 226B1 and 226V1) also produced reductions in the times taken to complete the experiment in control animals (B6 healthy mice) of 8s, 11s, 12s, 18s, 16s and 14s, respectively. Therefore, it may be concluded that these compounds have significant activity against neurodegeneration and in neuroregeneration.

SMILES	Production of TNF-α in serum (TNF-α)	G protein binding [1]	IC50 [2]	IC50 (HepG2 cells)	IC50 ([3]; Homo sapiens, MDA-MB-231)	Transition temperature (lamellar to HII) [4]	Cholesterol in serum (top number) [5]	Glucose in serum (bottom number) [5]	Triglycerides in serum (central number) [5]	Expression of α-synuclein (α-synuclein)	Percentage of total PUFA (3T3 cells)	IC50 (lung cancer cells A549; Homo sapiens, A549)	Neuronal death (P19 cells) after treatment with NMDA (P19 cells)	COX-2 protein levels (expression), percentages of inhibition compared to positive control (COX-2)	IC50 (Jurkat cells; Homo sapiens, Jurkat)	Levels of apoA-I [6]	Blood pressure [7]	further results
CCCCCC=CCC=CCC=CCCCC(O)C(=O)O (stereo not shown) [183A2, 2-hydroxy-6,9,12-octadecatrienoic acid]	71%	17 ± 357	372 µM	380 µM	347 µM	50.1 °C	79%	82%	78%	40%	44.0 ± 2.6%	192 µM	−70%	23%	184 µM	311%	189 mm Hg	
CCCCCC=CCC=CCC=CCC=CCCC(O)C(=O)O (stereo not shown) [204A1, 2-hydroxy-5,8,11,14-eicosatetraenoic acid]	24%	385 ± 22	197 µM	192 µM	381 µM	49.3 °C	72%	85%	77%	41%	45.5 ± 2.9%	243 µM	−70%	17%	62 µM	131%	205 mm Hg	
CC/C=C\C/C=C\C/C=C\C/C=C\C/C=C\C/C=C\CC(O)C(=O)[O-].[Na+] (stereo not shown) [226B1]	83%		196 µM				59%	81%	62%	31%			−222%	37%		333%	186 mm Hg	IC50 [3]: 195 µM; Temperature of lamellar-to-hexagonal transition ([4]; DEPE membranes, DEPE:D-PUFA 10:1 (mol:mol)): 45.1 °C; IC50 (lung cancer cells A549): 198 µM; IC50 (Jurkat cells): 175 µM; Reduction in the time taken to complete the experiment (B6 healthy mice): 16 s
